From ChEMBL document CHEMBL1201862, “PubChem BioAssay data set” (2004)
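Where inhibition never reached the appropriate level, the endpoint shown equals the highest concentration tested. Otherwise, values were interpolated linearly from a five-concentration, 48-hour dose response in 96-well plates. GI50 marks 50% less growth.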 Active and inactive are the calls of the source. No stated cut-off is given here; in the data, active = GI50 up to about 1.1 µM and inactive = higher.

Tests used:
Assay in all cases: growth of human tumour cells (NCI), 48 h
NCI-H23 = system: NCI-H23
OVCAR-3 = system: OVCAR-3
BT-549 = system: BT-549
UO-31 = system: UO-31
CAKI-1 = system: CAKI-1
HL-60 = system: HL-60
EKVX = system: EKVX
SK-MEL-28 = system: SK-MEL-28
PC-3 = system: PC-3
KM12 = system: KM12
MDA-MB-231 = system: MDA-MB-231
NCI-H522 = system: NCI-H522
MCF7 = system: MCF7
SF-539 = system: SF-539
A549 = system: A549
SF-268 = system: SF-268
NCI/ADR-RES = system: NCI/ADR-RES
RXF 393 = system: RXF 393
HOP-92 = system: HOP-92
HCC 2998 = system: HCC 2998

| SMILES | GI50 (NCI-H23) | GI50 (OVCAR-3) | GI50 (BT-549) | GI50 (UO-31) | GI50 (CAKI-1) | GI50 (HL-60) | GI50 (EKVX) | GI50 (SK-MEL-28) | GI50 (PC-3) | GI50 (KM12) | GI50 (MDA-MB-231) | GI50 (NCI-H522) | GI50 (MCF7) | GI50 (SF-539) | GI50 (A549) | GI50 (SF-268) | GI50 (NCI/ADR-RES) | GI50 (RXF 393) | GI50 (HOP-92) | GI50 (HCC 2998) |
| --- | --- | --- | --- | --- | --- | --- | --- | --- | --- | --- | --- | --- | --- | --- | --- | --- | --- | --- | --- | --- |
| CCCn1c(SC)nc(COC(=O)NC)c1COC(=O)NC | > 100 µM (inactive) | > 100 µM (inactive) | > 100 µM (inactive) | > 100 µM (inactive) | > 100 µM (inactive) | > 100 µM (inactive) | > 100 µM (inactive) | > 100 µM (inactive) | > 100 µM (inactive) | > 100 µM (inactive) | > 100 µM (inactive) | > 100 µM (inactive) | > 100 µM (inactive) | > 100 µM (inactive) | > 100 µM (inactive) | > 100 µM (inactive) | > 100 µM (inactive) | – | – | – |
| Cc1cnoc1NS(=O)(=O)c1ccc(Nc2nnc(/C=C/c3c(O)ccc4ccccc34)c(=O)n2N)cc1 | 7.73 µM (inactive) | 17.3 µM (inactive) | 18.7 µM (inactive) | 28.7 µM (inactive) | 27.5 µM (inactive) | 0.74 µM (active) | 35.9 µM (inactive) | – | – | – | – | – | 18.2 µM (inactive) | – | 35.1 µM (inactive) | 11.3 µM (inactive) | 11.5 µM (inactive) | 24 µM (inactive) | 41.3 µM (inactive) | – |
| CCCc1c2c3ccccc3nc-2nc2ccccn12 | 0.863 µM (active) | 56 µM (inactive) | > 100 µM (inactive) | 56.8 µM (inactive) | > 100 µM (inactive) | 35.6 µM (inactive) | > 100 µM (inactive) | > 100 µM (inactive) | 64.6 µM (inactive) | 49.4 µM (inactive) | 72.1 µM (inactive) | > 100 µM (inactive) | – | > 100 µM (inactive) | 83.4 µM (inactive) | 24.4 µM (inactive) | > 100 µM (inactive) | – | 36.5 µM (inactive) | – |
| CC(O)CCCOC(c1ccccc1)(c1ccccc1)c1ccccc1 (stereo not given) | 14.1 µM (inactive) | 14.2 µM (inactive) | – | 13.7 µM (inactive) | 16 µM (inactive) | 17.6 µM (inactive) | 14.8 µM (inactive) | 16.4 µM (inactive) | 11.5 µM (inactive) | 14.3 µM (inactive) | 17.3 µM (inactive) | 13.7 µM (inactive) | 14.7 µM (inactive) | 17.2 µM (inactive) | 13.8 µM (inactive) | 15.9 µM (inactive) | 11.7 µM (inactive) | 14.7 µM (inactive) | 12.6 µM (inactive) | 15.3 µM (inactive) |
| CC(C)CC(NC(=O)C(C)(CI)Cc1ccccc1)C(=O)Nc1ccccc1 (stereo not given) | > 100 µM (inactive) | > 100 µM (inactive) | – | > 100 µM (inactive) | > 100 µM (inactive) | 33.2 µM (inactive) | > 100 µM (inactive) | – | > 100 µM (inactive) | > 100 µM (inactive) | > 100 µM (inactive) | > 100 µM (inactive) | > 100 µM (inactive) | > 100 µM (inactive) | > 100 µM (inactive) | – | > 100 µM (inactive) | > 100 µM (inactive) | > 100 µM (inactive) | > 100 µM (inactive) |
| CC1(C)C2CCC(N)(C2)C1O (stereo not given) | > 100 µM (inactive) | > 100 µM (inactive) | > 100 µM (inactive) | > 100 µM (inactive) | > 100 µM (inactive) | > 10 µM (inactive) | > 100 µM (inactive) | > 100 µM (inactive) | > 100 µM (inactive) | > 100 µM (inactive) | – | – | > 100 µM (inactive) | – | > 100 µM (inactive) | – | > 100 µM (inactive) | > 100 µM (inactive) | > 100 µM (inactive) | > 100 µM (inactive) |
| O=c1oc2ccccc2n1CCCn1c(=O)oc2ccccc21 | > 100 µM (inactive) | > 100 µM (inactive) | > 100 µM (inactive) | – | > 100 µM (inactive) | > 100 µM (inactive) | > 100 µM (inactive) | > 100 µM (inactive) | > 100 µM (inactive) | > 100 µM (inactive) | > 100 µM (inactive) | – | > 100 µM (inactive) | > 100 µM (inactive) | – | > 100 µM (inactive) | > 100 µM (inactive) | 82.8 µM (inactive) | – | – |
| O=c1[nH]c(-n2[nH]c3c(c2=O)CCCC3)nc(O)c1-c1ccccc1 | > 100 µM (inactive) | – | > 100 µM (inactive) | > 100 µM (inactive) | > 100 µM (inactive) | > 100 µM (inactive) | > 100 µM (inactive) | > 100 µM (inactive) | > 100 µM (inactive) | > 100 µM (inactive) | > 100 µM (inactive) | > 100 µM (inactive) | – | – | – | > 100 µM (inactive) | > 100 µM (inactive) | > 100 µM (inactive) | > 100 µM (inactive) | – |
| O=[N+]([O-])/C(C(Cl)=C(Cl)Cl)=C1\NCCS1 | 31.5 µM (inactive) | 33.3 µM (inactive) | 70 µM (inactive) | 41.1 µM (inactive) | 45.7 µM (inactive) | 16.9 µM (inactive) | > 100 µM (inactive) | 48.2 µM (inactive) | 35.6 µM (inactive) | 69.7 µM (inactive) | 38.8 µM (inactive) | – | 36 µM (inactive) | 42.5 µM (inactive) | > 100 µM (inactive) | 39.9 µM (inactive) | 30.2 µM (inactive) | 27.9 µM (inactive) | – | 34.4 µM (inactive) |
| CCOC(=O)/C(C#N)=C/c1coc2cc(C)cc(C)c2c1=O | > 100 µM (inactive) | 64.9 µM (inactive) | > 100 µM (inactive) | 59 µM (inactive) | > 100 µM (inactive) | > 100 µM (inactive) | > 100 µM (inactive) | > 100 µM (inactive) | > 100 µM (inactive) | > 100 µM (inactive) | > 100 µM (inactive) | > 100 µM (inactive) | – | > 100 µM (inactive) | > 100 µM (inactive) | 66.4 µM (inactive) | > 100 µM (inactive) | > 100 µM (inactive) | 95.1 µM (inactive) | > 100 µM (inactive) |
| CSC1=C(C#N)C(=O)N(c2ccc(Cl)cc2)C(=O)C1C#N (stereo not given) | > 100 µM (inactive) | > 100 µM (inactive) | > 100 µM (inactive) | > 100 µM (inactive) | > 100 µM (inactive) | > 100 µM (inactive) | > 100 µM (inactive) | > 100 µM (inactive) | > 100 µM (inactive) | – | > 100 µM (inactive) | > 100 µM (inactive) | > 100 µM (inactive) | > 100 µM (inactive) | > 100 µM (inactive) | > 100 µM (inactive) | – | > 100 µM (inactive) | 28.9 µM (inactive) | > 100 µM (inactive) |
| O=C(/C=C1/Nc2ccc([N+](=O)[O-])cc2N/C1=C/C(=O)c1ccccc1)c1ccccc1 | 12.4 µM (inactive) | 16.7 µM (inactive) | 18.5 µM (inactive) | 18.6 µM (inactive) | 26.7 µM (inactive) | – | 30.8 µM (inactive) | – | 43.7 µM (inactive) | 59.4 µM (inactive) | 16.6 µM (inactive) | 13.3 µM (inactive) | 21 µM (inactive) | 8.2 µM (inactive) | 36.3 µM (inactive) | 15.2 µM (inactive) | 18.3 µM (inactive) | 14.3 µM (inactive) | – | 55.8 µM (inactive) |
| C=C(C(N)=O)c1ccc([N+](=O)[O-])o1 | 5.02 µM (inactive) | 8.36 µM (inactive) | – | – | 3.4 µM (inactive) | 3.16 µM (inactive) | 18.1 µM (inactive) | 2.67 µM (inactive) | 30.7 µM (inactive) | 16.7 µM (inactive) | 13.8 µM (inactive) | 1.97 µM (inactive) | 6.11 µM (inactive) | 12.6 µM (inactive) | 15.1 µM (inactive) | 8.36 µM (inactive) | 15.5 µM (inactive) | 3.08 µM (inactive) | 6.49 µM (inactive) | 16.7 µM (inactive) |
| CC1=NN(c2cccc(Cl)c2)C2(C1=Cc1ccc(O)cc1)C(Cl)C(=O)N2c1nc2ccccc2s1 (stereo not given) | 16 µM (inactive) | 26 µM (inactive) | – | 12.9 µM (inactive) | 27.1 µM (inactive) | 26.4 µM (inactive) | 29.4 µM (inactive) | 29 µM (inactive) | 19.4 µM (inactive) | 22.4 µM (inactive) | 24.6 µM (inactive) | 22.2 µM (inactive) | 17.8 µM (inactive) | 35.4 µM (inactive) | – | 19.6 µM (inactive) | 21.4 µM (inactive) | 20.5 µM (inactive) | 15.1 µM (inactive) | 18.8 µM (inactive) |
| O=c1[nH]c(=O)n(C2CC(O)C(CO)O2)cc1C1=NC1 (stereo not given) | > 100 µM (inactive) | > 100 µM (inactive) | > 100 µM (inactive) | > 100 µM (inactive) | – | – | > 100 µM (inactive) | > 100 µM (inactive) | – | > 100 µM (inactive) | > 100 µM (inactive) | – | > 100 µM (inactive) | > 100 µM (inactive) | > 100 µM (inactive) | > 100 µM (inactive) | > 100 µM (inactive) | > 100 µM (inactive) | > 100 µM (inactive) | > 100 µM (inactive) |
| c1c[nH]c(-c2cccc3nsnc23)c1 | > 100 µM (inactive) | – | > 100 µM (inactive) | 44.6 µM (inactive) | 43.5 µM (inactive) | – | 33 µM (inactive) | > 100 µM (inactive) | 95.9 µM (inactive) | 30.8 µM (inactive) | 99.3 µM (inactive) | > 100 µM (inactive) | 6.7 µM (inactive) | > 100 µM (inactive) | 72.3 µM (inactive) | > 100 µM (inactive) | > 100 µM (inactive) | 38.1 µM (inactive) | – | > 100 µM (inactive) |
